Source: ChEMBL document CHEMBL3885881, “DrugMatrix”

Species: Rattus norvegicus
Assay: DrugMatrix - Regimen: Daily Repeat
Type: toxicity, organism-based, Sprague-Dawley
Parameters: regimen Daily Repeat, gender Male, age 6-8 weeks
Conditions: in vivo, po, route oral GAVAGE, vehicle .5 % CMC; for ABSOLUTE BASOPHIL / ABSOLUTE EOSINOPHIL / ABSOLUTE LYMPHOCYTE / ABSOLUTE MONOCYTE / ABSOLUTE SEGMENTED NEUTROPHIL / BASOPHIL / EOSINOPHIL / ERYTHROCYTE COUNT / HEMATOCRIT / HEMOGLOBIN / LEUKOCYTE COUNT / LYMPHOCYTE / MEAN CORPUSCULAR HEMOGLOBIN / MEAN CORPUSCULAR HEMOGLOBIN CONCENTRATION / MEAN CORPUSCULAR VOLUME / MONOCYTE / NEUTROPHIL / NUCLEATED RED BLOOD CELLS / PLATELET COUNT: tissue Blood; for ALANINE AMINOTRANSFERASE / ALBUMIN / ALKALINE PHOSPHATASE / ASPARTATE AMINOTRANSFERASE / BLOOD UREA NITROGEN / CARBON DIOXIDE / CHLORIDE / CHOLESTEROL / CREATINE PHOSPHOKINASE / CREATININE / GLUCOSE / LACTATE DEHYDROGENASE / LIPASE / PHOSPHORUS / POTASSIUM / SODIUM / TOTAL BILIRUBIN / TOTAL PROTEIN / URIC ACID: tissue Plasma
[1] = 0 mg/kg, 72 h, dose level Control, time 3 day
[2] = 0 mg/kg, 120 h, dose level Control, time 5 day
[3] = 0.1 mg/kg, 72 h, dose level Low, time 3 day

CCCN1C[C@H](CSC)C[C@@H]2c3cccc4[nH]cc(c34)C[C@H]21 [PERGOLIDE]
ABSOLUTE BASOPHIL [1]: 0 CELLS/uL
ABSOLUTE EOSINOPHIL [1]: 284.5 CELLS/uL
ABSOLUTE LYMPHOCYTE [1]: 11670.5 CELLS/uL
ABSOLUTE MONOCYTE [1]: 420.83 CELLS/uL
ABSOLUTE SEGMENTED NEUTROPHIL [1]: 1024.17 CELLS/uL
BASOPHIL [1]: 0%
EOSINOPHIL [1]: 1.67%
ERYTHROCYTE COUNT [1]: 5.38 x10E6/uL
HEMATOCRIT [1]: 34.05%
HEMOGLOBIN [1]: 12.75 G/DL
LEUKOCYTE COUNT [1]: 13.4 x10E3/uL
LYMPHOCYTE [1]: 88.33%
MEAN CORPUSCULAR HEMOGLOBIN [1]: 23.73 pg
MEAN CORPUSCULAR HEMOGLOBIN CONCENTRATION [1]: 37.43 G/DL
MEAN CORPUSCULAR VOLUME [1]: 63.4 fL
MONOCYTE [1]: 2.83%
NEUTROPHIL [1]: 7.17%
NUCLEATED RED BLOOD CELLS [1]: 0 /100WBC
PLATELET COUNT [1]: 1184.67 x10E3/uL
ALANINE AMINOTRANSFERASE [1]: 45.33 u/L
ALBUMIN [1]: 4.3 G/DL
ALKALINE PHOSPHATASE [1]: 388.83 u/L
ASPARTATE AMINOTRANSFERASE [1]: 84.83 u/L
BLOOD UREA NITROGEN [1]: 15.5 mg/dL
CARBON DIOXIDE [1]: 27 mmol/L
CHLORIDE [1]: 101.8 MEQ/L
CHOLESTEROL [1]: 76.67 mg/dL
CREATINE PHOSPHOKINASE [1]: 301 u/L
CREATININE [1]: 0.21 mg/dL
GLUCOSE [1]: 168.83 mg/dL
LACTATE DEHYDROGENASE [1]: 294.83 u/L
LIPASE [1]: 9.8 u/L
PHOSPHORUS [1]: 13.25 mg/dL
POTASSIUM [1]: 6.41 MEQ/L
SODIUM [1]: 143.72 MEQ/L
TOTAL BILIRUBIN [1]: 0.22 mg/dL
TOTAL PROTEIN [1]: 5.98 G/DL
URIC ACID [1]: 1.5 mg/dL
ABSOLUTE BASOPHIL [2]: 0 CELLS/uL
ABSOLUTE EOSINOPHIL [2]: 190.67 CELLS/uL
ABSOLUTE LYMPHOCYTE [2]: 12549.5 CELLS/uL
ABSOLUTE MONOCYTE [2]: 276 CELLS/uL
ABSOLUTE SEGMENTED NEUTROPHIL [2]: 1067.17 CELLS/uL
BASOPHIL [2]: 0%
EOSINOPHIL [2]: 1.33%
ERYTHROCYTE COUNT [2]: 5.66 x10E6/uL
HEMATOCRIT [2]: 35.92%
HEMOGLOBIN [2]: 13.65 G/DL
LEUKOCYTE COUNT [2]: 14.08 x10E3/uL
LYMPHOCYTE [2]: 89%
MEAN CORPUSCULAR HEMOGLOBIN [2]: 24.12 pg
MEAN CORPUSCULAR HEMOGLOBIN CONCENTRATION [2]: 38.03 G/DL
MEAN CORPUSCULAR VOLUME [2]: 63.47 fL
MONOCYTE [2]: 2%
NEUTROPHIL [2]: 7.67%
NUCLEATED RED BLOOD CELLS [2]: 0.17 /100WBC
PLATELET COUNT [2]: 1251.67 x10E3/uL
ALANINE AMINOTRANSFERASE [2]: 43.33 u/L
ALBUMIN [2]: 4.22 G/DL
ALKALINE PHOSPHATASE [2]: 365.67 u/L
ASPARTATE AMINOTRANSFERASE [2]: 83.67 u/L
BLOOD UREA NITROGEN [2]: 18.17 mg/dL
CARBON DIOXIDE [2]: 28.67 mmol/L
CHLORIDE [2]: 103.5 MEQ/L
CHOLESTEROL [2]: 71.5 mg/dL
CREATINE PHOSPHOKINASE [2]: 284.5 u/L
CREATININE [2]: 0.21 mg/dL
GLUCOSE [2]: 161.67 mg/dL
LACTATE DEHYDROGENASE [2]: 259.67 u/L
LIPASE [2]: 9.5 u/L
PHOSPHORUS [2]: 12.45 mg/dL
POTASSIUM [2]: 6.49 MEQ/L
SODIUM [2]: 144.25 MEQ/L
TOTAL BILIRUBIN [2]: 0.2 mg/dL
TOTAL PROTEIN [2]: 6.1 G/DL
URIC ACID [2]: 1.73 mg/dL
ABSOLUTE BASOPHIL [3]: 0 CELLS/uL
ABSOLUTE EOSINOPHIL [3]: 0 CELLS/uL
ABSOLUTE LYMPHOCYTE [3]: 6272.67 CELLS/uL
ABSOLUTE MONOCYTE [3]: 109.67 CELLS/uL
ABSOLUTE SEGMENTED NEUTROPHIL [3]: 384.33 CELLS/uL
BASOPHIL [3]: 0%
EOSINOPHIL [3]: 0%
ERYTHROCYTE COUNT [3]: 5.33 x10E6/uL
HEMATOCRIT [3]: 33.93%
HEMOGLOBIN [3]: 12.33 G/DL
LEUKOCYTE COUNT [3]: 6.77 x10E3/uL
LYMPHOCYTE [3]: 92.67%
MEAN CORPUSCULAR HEMOGLOBIN [3]: 23.1 pg
MEAN CORPUSCULAR HEMOGLOBIN CONCENTRATION [3]: 36.37 G/DL
MEAN CORPUSCULAR VOLUME [3]: 63.57 fL
MONOCYTE [3]: 1.67%
NEUTROPHIL [3]: 5.67%
NUCLEATED RED BLOOD CELLS [3]: 0 /100WBC
PLATELET COUNT [3]: 1337.33 x10E3/uL
ALANINE AMINOTRANSFERASE [3]: 45.67 u/L
ALBUMIN [3]: 4.4 G/DL
ALKALINE PHOSPHATASE [3]: 479.67 u/L
ASPARTATE AMINOTRANSFERASE [3]: 81.67 u/L
BLOOD UREA NITROGEN [3]: 15.33 mg/dL
CARBON DIOXIDE [3]: 28.67 mmol/L
CHLORIDE [3]: 102 MEQ/L
CHOLESTEROL [3]: 85 mg/dL
CREATINE PHOSPHOKINASE [3]: 214.67 u/L
CREATININE [3]: 0.21 mg/dL
GLUCOSE [3]: 139 mg/dL
LACTATE DEHYDROGENASE [3]: 153.33 u/L
LIPASE [3]: 9 u/L
PHOSPHORUS [3]: 12.77 mg/dL
POTASSIUM [3]: 6.37 MEQ/L
SODIUM [3]: 146.5 MEQ/L
TOTAL BILIRUBIN [3]: 0.23 mg/dL
TOTAL PROTEIN [3]: 6.23 G/DL
URIC ACID [3]: 1.53 mg/dL
